Experimental data from ChEMBL document CHEMBL5705893, “Targeting the mitotic checkpoint for cancer therapy with NMS-P715, an inhibitor of MPS1 kinase” (Cancer Res, 2010).
Calls of active or inactive are those of the source. The rule behind the calls is not given here.

What was measured:
U2OS [1] = test: Cytotoxicity against human U2OS cells expressing YFP-alpha tubulin assessed as cell death incubated for 86 hrs; format: functional, cell-based
COLO 320 = test: Antiproliferative activity against human COLO 320 cells assessed as inhibition of cell growth incubated for 72 hrs by celltiter-glo assay; format: functional, cell-based; conditions: COLO 320, 72 h
[2] = target: Fibroblast growth factor receptor 1 (Homo sapiens, UniProt P11362); test: Inhibition of recombinant FGFR1 (unknown origin)
[3] = target: Glycogen synthase kinase-3 beta (Homo sapiens, UniProt P49841); test: Inhibition of recombinant GSK3beta (unknown origin)
SU-DHL-6 = test: Antiproliferative activity against human SU-DHL-6 cells assessed as inhibition of cell growth incubated for 72 hrs by celltiter-glo assay; format: functional, cell-based; conditions: SU-DHL-6, 72 h
SET-2 = test: Antiproliferative activity against human SET2 cells assessed as inhibition of cell growth incubated for 72 hrs by celltiter-glo assay; format: functional, cell-based; conditions: SET-2, 72 h
[4] = Inhibition of recombinant CDK2/CYCA (unknown origin); parameters: species or system Homo sapiens
Insulin receptor = Insulin receptor (Homo sapiens, UniProt P06213); test: Inhibition of recombinant IR (unknown origin)
SNB-19 = test: Antiproliferative activity against human SNB-19 cells assessed as inhibition of cell growth incubated for 72 hrs by celltiter-glo assay; format: functional, cell-based; conditions: SNB-19, 72 h
A2780 = test: Cell cycle arrest in human A2780 cells assessed as accumulation of cells at G2/M phase at 0.2 to 1 micromol/L incubated for 24 hrs by FACS/PI staining based flow cytometric analysis; format: functional; conditions: dose 0.2-1 µmol/L
BT-474 = test: Antiproliferative activity against human BT-474 cells assessed as inhibition of cell growth incubated for 72 hrs by celltiter-glo assay; format: functional, cell-based; conditions: BT-474, 72 h
[5] = target: Serine/threonine-protein kinase pim-1 (Homo sapiens, UniProt P11309); test: Inhibition of recombinant PIM1 (unknown origin)
BJ = test: Inhibition of colony formation in human BJ cells assessed as decrease in colony number at 0.5 to 3 uM incubated for 72 hrs followed by compound washout and measured after 18 days by crystal violet staining based assay; format: functional, cell-based; conditions: dose 0.5-3 µM
[6] = target: Serine/threonine-protein kinase haspin (Homo sapiens, UniProt Q8TF76); test: Inhibition of recombinant Haspin (unknown origin)
MOLT-4 = test: Antiproliferative activity against human MOLT-4 cells assessed as inhibition of cell growth incubated for 72 hrs by celltiter-glo assay; format: functional, cell-based; conditions: MOLT-4, 72 h
HeLa [7] = test: Effect on BUBR1 level in human nocodazole-arrested HeLa cells at 1 micromol/L in presence of MG132; format: functional, cell-based; conditions: dose 1.0 µmol/L
[8] = target: Vascular endothelial growth factor receptor 3 (Homo sapiens, UniProt P35916); test: Inhibition of recombinant VEGFR3 (unknown origin)
[9] = target: Epidermal growth factor receptor (Homo sapiens, UniProt P00533)
Description: Inhibition of recombinant EGFR1 (unknown origin)

[10] = Antiproliferative activity against human COLO 206F cells assessed as inhibition of cell growth incubated for 72 hrs by celltiter-glo assay; format: functional, cell-based
SW48 = test: Antiproliferative activity against human SW48 cells assessed as inhibition of cell growth incubated for 72 hrs by celltiter-glo assay; format: functional, cell-based; conditions: SW48, 72 h
[11] = target: Serine/threonine-protein kinase PAK 4 (Homo sapiens, UniProt O96013); test: Inhibition of recombinant PAK4 (unknown origin)
[12] = target: Eukaryotic translation initiation factor 2-alpha kinase 3 (Homo sapiens, UniProt Q9NZJ5); test: Inhibition of recombinant PERK (unknown origin)
[13] = target: Inhibitor of nuclear factor kappa-B kinase subunit beta (Homo sapiens, UniProt O14920); test: Inhibition of recombinant IKK2 (unknown origin)
MDA-MB-231 = test: Antiproliferative activity against human MDA-MB-231 cells assessed as inhibition of cell growth incubated for 72 hrs by celltiter-glo assay; format: functional, cell-based; conditions: MDA-MB-231, 72 h
HeLa [14] = test: Inhibition of cdc20-BUB3 protein-protein interaction in human nocodazole arrested HeLa cells by Coimmunoprecipitation analysis; format: cell-based
KARPAS-299 = test: Antiproliferative activity against human KARPAS-299 cells assessed as inhibition of cell growth incubated for 72 hrs by celltiter-glo assay; format: functional, cell-based; conditions: KARPAS-299, 72 h
[15] = target: MAP kinase-activated protein kinase 2 (Homo sapiens, UniProt P49137); test: Inhibition of recombinant MAPKAPK2 (unknown origin)
SK-MEL-5 = test: Antiproliferative activity against human SK-MEL-5 cells assessed as inhibition of cell growth incubated for 72 hrs by celltiter-glo assay; format: functional, cell-based; conditions: SK-MEL-5, 72 h
NCI/ADR-RES = test: Antiproliferative activity against human NCI-ADR-RES cells assessed as inhibition of cell growth incubated for 72 hrs by celltiter-glo assay; format: functional, cell-based
HOP-62 = test: Antiproliferative activity against human HOP-62 cells assessed as inhibition of cell growth incubated for 72 hrs by celltiter-glo assay; format: functional, cell-based; conditions: HOP-62, 72 h
SR = test: Antiproliferative activity against human SR cells assessed as inhibition of cell growth incubated for 72 hrs by celltiter-glo assay; format: functional, cell-based
[16] = Antiproliferative activity against human PL21 cells assessed as inhibition of cell growth incubated for 72 hrs by celltiter-glo assay; format: functional, cell-based; conditions: PL-21, 72 h
NCI-H2126 = test: Antiproliferative activity against human NCI-H2126 cells assessed as inhibition of cell growth incubated for 72 hrs by celltiter-glo assay; format: functional, cell-based; conditions: NCI-H2126, 72 h
NCI-H929 = test: Antiproliferative activity against human NCI-H929 cells assessed as inhibition of cell growth incubated for 72 hrs by celltiter-glo assay; format: functional, cell-based; conditions: NCI-H929, 72 h
Hs-578T = test: Antiproliferative activity against human Hs-578T cells assessed as inhibition of cell growth incubated for 72 hrs by celltiter-glo assay; format: functional, cell-based
NCI-H889 = test: Antiproliferative activity against human NCI-H889 cells assessed as inhibition of cell growth incubated for 72 hrs by celltiter-glo assay; format: functional, cell-based; conditions: NCI-H889, 72 h
T98G = test: Antiproliferative activity against human T98G cells assessed as inhibition of cell growth incubated for 72 hrs by celltiter-glo assay; format: functional, cell-based
COLO-678 = test: Antiproliferative activity against human COLO-678 cells assessed as inhibition of cell growth incubated for 72 hrs by celltiter-glo assay; format: functional, cell-based; conditions: COLO-678, 72 h
UO-31 = test: Antiproliferative activity against human UO-31 cells assessed as inhibition of cell growth incubated for 72 hrs by celltiter-glo assay; format: functional, cell-based; conditions: UO-31, 72 h
[17] = Half life in Athymic nu-nu mouse at 100 mg/kg, po measured upto 24 hrs by LC-MS/MS analysis; format: ADME, organism-based; conditions: in vivo
U2OS [18] = test: Induction of mitotic arrest in human U2OS cells at 1 micromol/L incubated for 86 hrs by time-lapse microscopic analysis; format: functional, cell-based; conditions: dose 1.0 µmol/L
HCC 2998 = test: Antiproliferative activity against human HCC 2998 cells assessed as inhibition of cell growth incubated for 72 hrs by celltiter-glo assay; format: functional, cell-based; conditions: HCC 2998, 72 h
[19] = target: Tyrosine-protein kinase SYK (Homo sapiens, UniProt P43405)
Description: Inhibition of recombinant SYK (unknown origin)

Sequence of Fibroblast growth factor receptor 1 (P11362 whole entry): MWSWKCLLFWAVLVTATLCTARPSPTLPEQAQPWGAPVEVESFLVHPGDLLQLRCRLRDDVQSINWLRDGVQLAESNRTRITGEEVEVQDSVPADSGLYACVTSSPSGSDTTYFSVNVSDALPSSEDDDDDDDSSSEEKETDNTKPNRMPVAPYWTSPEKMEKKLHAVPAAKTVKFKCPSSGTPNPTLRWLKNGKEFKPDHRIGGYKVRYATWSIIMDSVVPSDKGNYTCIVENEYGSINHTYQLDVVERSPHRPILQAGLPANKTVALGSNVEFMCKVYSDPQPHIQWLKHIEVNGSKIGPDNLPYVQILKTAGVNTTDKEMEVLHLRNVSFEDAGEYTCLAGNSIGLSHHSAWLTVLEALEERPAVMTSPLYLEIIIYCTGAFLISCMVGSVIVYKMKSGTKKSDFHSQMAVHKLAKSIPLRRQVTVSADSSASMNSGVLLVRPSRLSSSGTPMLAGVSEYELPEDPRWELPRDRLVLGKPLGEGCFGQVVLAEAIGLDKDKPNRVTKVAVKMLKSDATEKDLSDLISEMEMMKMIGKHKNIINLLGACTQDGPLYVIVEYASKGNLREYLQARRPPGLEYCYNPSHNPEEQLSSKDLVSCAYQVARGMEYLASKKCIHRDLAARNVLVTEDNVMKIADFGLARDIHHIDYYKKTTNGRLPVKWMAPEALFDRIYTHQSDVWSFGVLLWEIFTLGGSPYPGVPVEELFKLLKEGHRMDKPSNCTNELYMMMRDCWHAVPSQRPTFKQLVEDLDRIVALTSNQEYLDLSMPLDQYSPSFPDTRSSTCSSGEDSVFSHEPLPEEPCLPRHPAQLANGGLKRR
Sequence of Epidermal growth factor receptor (P00533 whole entry): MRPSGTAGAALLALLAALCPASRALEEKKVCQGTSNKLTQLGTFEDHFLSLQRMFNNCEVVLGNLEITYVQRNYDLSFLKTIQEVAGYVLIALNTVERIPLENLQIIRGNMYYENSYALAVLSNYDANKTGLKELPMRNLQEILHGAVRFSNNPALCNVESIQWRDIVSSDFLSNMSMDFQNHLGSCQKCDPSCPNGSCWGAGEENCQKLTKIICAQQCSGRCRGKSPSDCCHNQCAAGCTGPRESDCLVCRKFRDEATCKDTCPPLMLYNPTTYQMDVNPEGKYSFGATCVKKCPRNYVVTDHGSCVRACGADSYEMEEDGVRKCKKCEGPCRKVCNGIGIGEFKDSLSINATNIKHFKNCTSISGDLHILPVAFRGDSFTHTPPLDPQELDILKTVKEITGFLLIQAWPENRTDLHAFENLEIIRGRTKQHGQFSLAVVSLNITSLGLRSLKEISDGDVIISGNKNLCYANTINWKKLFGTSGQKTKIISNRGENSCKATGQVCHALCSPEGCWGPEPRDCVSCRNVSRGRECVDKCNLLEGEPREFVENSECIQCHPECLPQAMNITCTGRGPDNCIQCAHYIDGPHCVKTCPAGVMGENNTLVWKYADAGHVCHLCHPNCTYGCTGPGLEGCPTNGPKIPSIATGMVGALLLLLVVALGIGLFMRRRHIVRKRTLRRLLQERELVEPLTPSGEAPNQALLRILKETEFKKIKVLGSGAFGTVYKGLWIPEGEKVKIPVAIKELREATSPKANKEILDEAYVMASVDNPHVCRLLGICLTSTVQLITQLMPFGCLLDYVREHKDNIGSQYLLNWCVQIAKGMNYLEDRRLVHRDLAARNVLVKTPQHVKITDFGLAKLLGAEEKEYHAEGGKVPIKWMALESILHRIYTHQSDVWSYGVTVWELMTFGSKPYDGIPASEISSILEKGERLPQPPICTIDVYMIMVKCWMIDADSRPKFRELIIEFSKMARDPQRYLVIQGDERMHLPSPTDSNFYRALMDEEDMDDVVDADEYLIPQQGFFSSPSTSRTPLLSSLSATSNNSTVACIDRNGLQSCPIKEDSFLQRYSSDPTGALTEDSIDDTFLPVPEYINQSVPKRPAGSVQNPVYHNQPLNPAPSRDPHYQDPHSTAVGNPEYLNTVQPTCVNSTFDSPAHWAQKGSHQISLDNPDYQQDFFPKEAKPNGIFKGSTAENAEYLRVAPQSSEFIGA
Sequence of Inhibitor of nuclear factor kappa-B kinase subunit beta (O14920 whole entry): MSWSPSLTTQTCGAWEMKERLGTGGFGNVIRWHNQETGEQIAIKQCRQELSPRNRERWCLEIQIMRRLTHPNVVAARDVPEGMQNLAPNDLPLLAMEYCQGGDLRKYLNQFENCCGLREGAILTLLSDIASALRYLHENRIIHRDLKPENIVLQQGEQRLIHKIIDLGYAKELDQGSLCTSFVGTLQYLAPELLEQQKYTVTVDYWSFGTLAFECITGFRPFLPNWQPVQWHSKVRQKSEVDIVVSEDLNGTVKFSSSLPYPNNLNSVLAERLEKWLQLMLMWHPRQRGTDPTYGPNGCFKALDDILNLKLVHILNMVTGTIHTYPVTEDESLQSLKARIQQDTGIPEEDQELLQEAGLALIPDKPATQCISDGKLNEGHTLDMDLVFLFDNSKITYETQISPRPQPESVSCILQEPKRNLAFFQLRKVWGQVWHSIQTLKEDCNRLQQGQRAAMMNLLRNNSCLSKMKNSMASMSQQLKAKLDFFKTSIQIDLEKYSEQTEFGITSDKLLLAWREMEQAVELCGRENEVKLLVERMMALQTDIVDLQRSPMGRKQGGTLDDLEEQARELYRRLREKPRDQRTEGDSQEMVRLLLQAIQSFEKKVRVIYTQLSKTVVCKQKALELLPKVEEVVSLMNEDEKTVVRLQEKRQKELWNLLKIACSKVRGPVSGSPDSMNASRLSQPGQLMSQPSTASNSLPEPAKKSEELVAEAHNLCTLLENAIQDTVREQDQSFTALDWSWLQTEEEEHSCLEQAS
Sequence of Glycogen synthase kinase-3 beta (P49841 whole entry): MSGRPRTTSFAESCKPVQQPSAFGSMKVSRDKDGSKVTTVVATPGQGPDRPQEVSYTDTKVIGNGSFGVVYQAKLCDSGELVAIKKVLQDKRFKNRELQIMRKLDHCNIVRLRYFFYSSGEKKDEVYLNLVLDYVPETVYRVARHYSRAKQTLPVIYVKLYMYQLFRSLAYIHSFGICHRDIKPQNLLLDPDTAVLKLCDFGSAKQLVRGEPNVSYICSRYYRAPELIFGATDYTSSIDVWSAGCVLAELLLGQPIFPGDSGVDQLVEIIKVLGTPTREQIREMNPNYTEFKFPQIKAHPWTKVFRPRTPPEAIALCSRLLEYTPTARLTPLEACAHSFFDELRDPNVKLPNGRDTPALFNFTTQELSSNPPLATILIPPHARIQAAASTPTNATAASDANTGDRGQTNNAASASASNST
Sequence of Insulin receptor (P06213 28-758 limits assumed): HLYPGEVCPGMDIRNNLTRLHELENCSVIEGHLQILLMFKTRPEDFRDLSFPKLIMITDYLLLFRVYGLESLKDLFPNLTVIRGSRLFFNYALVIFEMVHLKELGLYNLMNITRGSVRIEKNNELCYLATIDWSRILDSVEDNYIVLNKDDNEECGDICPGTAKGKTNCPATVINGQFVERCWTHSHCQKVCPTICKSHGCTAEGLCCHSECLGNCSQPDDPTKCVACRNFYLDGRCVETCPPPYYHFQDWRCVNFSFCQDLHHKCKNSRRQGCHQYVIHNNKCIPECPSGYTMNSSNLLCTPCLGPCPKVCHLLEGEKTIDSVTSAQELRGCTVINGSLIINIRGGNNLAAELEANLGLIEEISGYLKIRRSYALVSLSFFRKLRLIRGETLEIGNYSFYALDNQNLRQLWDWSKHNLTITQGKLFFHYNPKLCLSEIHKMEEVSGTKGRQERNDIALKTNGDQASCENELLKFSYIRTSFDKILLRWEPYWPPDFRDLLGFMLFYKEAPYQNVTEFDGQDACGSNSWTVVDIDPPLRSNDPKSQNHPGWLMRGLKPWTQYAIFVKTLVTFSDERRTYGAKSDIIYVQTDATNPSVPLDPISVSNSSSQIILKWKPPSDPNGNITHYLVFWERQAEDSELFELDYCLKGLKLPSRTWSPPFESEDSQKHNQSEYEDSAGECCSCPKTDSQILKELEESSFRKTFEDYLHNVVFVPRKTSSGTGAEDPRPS
Sequence of Insulin receptor (P06213 763-1382 limits assumed): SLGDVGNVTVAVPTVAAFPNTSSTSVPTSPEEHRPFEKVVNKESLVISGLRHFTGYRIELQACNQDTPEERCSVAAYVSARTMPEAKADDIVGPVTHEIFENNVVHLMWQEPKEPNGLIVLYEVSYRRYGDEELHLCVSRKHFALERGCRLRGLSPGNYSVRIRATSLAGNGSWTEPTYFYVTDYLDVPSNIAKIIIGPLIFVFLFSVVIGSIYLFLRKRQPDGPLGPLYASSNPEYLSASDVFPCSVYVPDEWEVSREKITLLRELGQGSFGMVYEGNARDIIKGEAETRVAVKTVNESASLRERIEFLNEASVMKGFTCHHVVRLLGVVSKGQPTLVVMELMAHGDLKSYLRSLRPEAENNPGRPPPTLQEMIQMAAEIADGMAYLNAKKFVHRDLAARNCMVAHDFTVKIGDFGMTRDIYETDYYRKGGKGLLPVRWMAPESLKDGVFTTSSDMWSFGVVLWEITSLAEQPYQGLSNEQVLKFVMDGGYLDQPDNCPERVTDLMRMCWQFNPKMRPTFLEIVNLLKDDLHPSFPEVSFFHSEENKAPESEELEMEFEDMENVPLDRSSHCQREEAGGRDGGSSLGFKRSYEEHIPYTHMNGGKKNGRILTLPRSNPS
Sequence of MAP kinase-activated protein kinase 2 (P49137 whole entry): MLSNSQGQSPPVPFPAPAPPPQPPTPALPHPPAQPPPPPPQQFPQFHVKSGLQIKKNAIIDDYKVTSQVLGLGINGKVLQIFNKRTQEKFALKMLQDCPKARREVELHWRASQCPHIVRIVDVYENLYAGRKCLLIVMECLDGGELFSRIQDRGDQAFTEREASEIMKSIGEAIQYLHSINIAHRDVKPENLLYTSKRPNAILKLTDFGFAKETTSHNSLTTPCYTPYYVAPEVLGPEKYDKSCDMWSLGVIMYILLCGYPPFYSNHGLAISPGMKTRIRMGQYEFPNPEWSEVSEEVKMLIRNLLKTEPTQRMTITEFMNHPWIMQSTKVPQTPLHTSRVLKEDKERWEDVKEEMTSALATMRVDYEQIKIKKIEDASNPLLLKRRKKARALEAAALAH

Structure (SMILES): CCc1cccc(CC)c1NC(=O)c1nn(C)c2c1CCc1cnc(Nc3ccc(C(=O)NC4CCN(C)CC4)cc3OC(F)(F)F)nc1-2
- Activity (U2OS [1]): Active
- IC50 (COLO 320): 1.28 µM
- IC50 [2]: > 10 µM
- IC50 [3]: > 10 µM
- IC50 (SU-DHL-6): 10 µM
- IC50 (SET-2): 10 µM
- IC50 [4]: > 10 µM
- IC50 (Insulin receptor): > 10 µM
- IC50 (SNB-19): 6.93 µM
- Activity (A2780): Active
- IC50 (BT-474): 1.16 µM
- IC50 [5]: > 10 µM
- Activity (BJ): Active
- IC50 [6]: > 10 µM
- IC50 (MOLT-4): 1.04 µM
- Activity (HeLa [7]): Active
- IC50 [8]: > 10 µM
- IC50 [9]: > 10 µM
- IC50 [10]: 1.24 µM
- IC50 (SW48): 0.551 µM
- IC50 [11]: > 10 µM
- IC50 [12]: > 10 µM
- IC50 [13]: > 10 µM
- IC50 (MDA-MB-231): 0.899 µM
- inhibition (HeLa [14]): Active
- IC50 (KARPAS-299): 3.53 µM
- IC50 [15]: > 10 µM
- IC50 (SK-MEL-5): 4.49 µM
- IC50 (NCI/ADR-RES): 2.48 µM
- IC50 (HOP-62): 7.77 µM
- IC50 (SR): 6.96 µM
- IC50 [16]: 2.96 µM
- IC50 (NCI-H2126): 4.63 µM
- IC50 (NCI-H929): 10 µM
- IC50 (Hs-578T): 6.64 µM
- IC50 (NCI-H889): 1.26 µM
- IC50 (T98G): 0.203 µM
- IC50 (COLO-678): 10 µM
- IC50 (UO-31): 3.62 µM
- half-life [17]: 16.8 h
- Activity (U2OS [18]): Active
- IC50 (HCC 2998): 1.81 µM
- IC50 [19]: > 10 µM
